System: oxazolone-induced hypersensitivity reaction in oxazolone-sensitized mice
Assay: Oxazolone-induced delayed-type hypersensitivity (dermal sensitization) in mice
Type: in vivo, CD1 mice

For `C[C@]12CCC(=O)C=C1CC[C@@H]1[C@@H]2[C@@H](O)C[C@@]2(C)[C@H]1CC[C@]2(O)C(=O)CO` [hydrocortisone], the “body weight (systemic effect)” value (1% hydrocortisone topical during the challenges, FIG. 7) was “decrease of body weight”, the “suppression of mean increase of ear thickness (MIET)” value (first challenge (acute inflammation), 1% topical twice daily, FIG. 4) was 74% and the “erythema of the ear” value (first challenge, topical twice daily) was “reduced erythema of the ear”.
